The source of these data is patent US20260207585A1, “METHODS AND COMPOSITIONS FOR THE TREATMENT OF PARKINSON'S DISEASE, HUNTINGTON'S DISEASE, AMYOTROPHIC LATERAL SCLEROSIS, AND LEARNING DISORDERS” (Cedars-Sinai Medical Center, priority 2022, published 2026).

One assay has as its target T1, NSD2 (E1099K) (Homo sapiens, UniProt O96028, E1099K).
T1 sequence (O96028 1-1365 E1099K): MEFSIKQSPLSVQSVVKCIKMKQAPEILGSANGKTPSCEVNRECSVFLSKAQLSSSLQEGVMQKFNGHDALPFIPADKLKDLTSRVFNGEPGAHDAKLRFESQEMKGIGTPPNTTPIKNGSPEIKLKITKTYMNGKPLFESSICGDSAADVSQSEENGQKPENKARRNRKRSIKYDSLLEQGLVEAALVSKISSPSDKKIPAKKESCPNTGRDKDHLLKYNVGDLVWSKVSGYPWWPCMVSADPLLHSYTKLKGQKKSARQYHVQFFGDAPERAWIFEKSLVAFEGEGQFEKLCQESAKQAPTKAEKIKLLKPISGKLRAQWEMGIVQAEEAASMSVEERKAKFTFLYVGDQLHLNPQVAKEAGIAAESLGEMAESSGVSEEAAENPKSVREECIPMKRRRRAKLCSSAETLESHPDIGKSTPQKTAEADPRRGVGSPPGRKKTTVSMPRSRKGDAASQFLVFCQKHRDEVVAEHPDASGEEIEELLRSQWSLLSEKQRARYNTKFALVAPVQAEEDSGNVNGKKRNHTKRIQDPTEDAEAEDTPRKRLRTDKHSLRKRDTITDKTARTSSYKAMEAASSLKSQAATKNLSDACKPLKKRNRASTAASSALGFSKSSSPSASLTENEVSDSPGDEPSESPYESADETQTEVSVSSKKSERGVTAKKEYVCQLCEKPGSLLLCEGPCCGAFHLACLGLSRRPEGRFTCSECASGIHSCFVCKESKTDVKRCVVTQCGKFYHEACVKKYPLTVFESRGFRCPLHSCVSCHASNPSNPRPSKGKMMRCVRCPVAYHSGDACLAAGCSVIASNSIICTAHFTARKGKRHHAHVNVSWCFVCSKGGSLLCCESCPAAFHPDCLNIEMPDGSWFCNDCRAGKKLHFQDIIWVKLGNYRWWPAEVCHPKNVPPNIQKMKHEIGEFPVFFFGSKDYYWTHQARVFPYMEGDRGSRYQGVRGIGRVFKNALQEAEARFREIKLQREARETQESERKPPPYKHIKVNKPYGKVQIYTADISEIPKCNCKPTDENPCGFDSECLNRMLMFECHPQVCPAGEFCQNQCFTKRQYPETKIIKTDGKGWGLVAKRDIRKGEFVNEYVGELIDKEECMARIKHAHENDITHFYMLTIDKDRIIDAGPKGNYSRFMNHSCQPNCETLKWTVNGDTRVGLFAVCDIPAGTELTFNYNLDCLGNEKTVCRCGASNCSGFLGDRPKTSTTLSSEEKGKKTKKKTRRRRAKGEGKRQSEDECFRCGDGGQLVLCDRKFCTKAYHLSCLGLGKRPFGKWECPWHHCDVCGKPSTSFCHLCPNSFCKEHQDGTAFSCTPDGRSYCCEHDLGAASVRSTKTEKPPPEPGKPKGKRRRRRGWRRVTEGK
The experiment in a line: Methyltransferase inhibition panel: NSD2 (E1099K). The class given is biochemical. As for the experimental part:
(§1) The ability of ETP69 to inhibit methyltransferases was tested.

The target in another assay is MLL3 Complex (Homo sapiens, UniProt Q8NEZ4). The experiment in a line: Methyltransferase inhibition panel: MLL3 Complex. The format is biochemical. The procedure: as §1
A further assay concerns the target PRMT5 (C449S)/MEP50 (Homo sapiens, UniProt O14744, C449S). The experiment in a line: Methyltransferase inhibition panel: PRMT5 (C449S)/MEP50. The class given is biochemical. The procedure: as §1
Assay [1] concerns wildtype and AD model (APP/PS1-transgenic) mice. The experiment in a line: Visual stimuli X-maze (ViS4M) test, colour and contrast modes. The format is in vivo. As for the experimental part: The effects of single and repeated ETP69 injections in mice were tested. The experimental timeline is depicted in FIG. 5. Three parallel injection conditions were tested: a single ETP69 condition, a boosted ETP69 injection, and repeated ETP69 injections. The single injection mice received one injection of ETP69 or DMSO at Day 0. The mice that received a boosted injection received one injection of ETP69 or DMSO at day 0 and one injection at day 9. The mice that received repeated injections received 11 injections of ETP69 or DMSO at day 0 or day 9. Both wildtype and AD model (APP/PS1-transgenic) mice were tested.
FIG. 6C-6F depicts the results of the mice on the color mode of the visual stimuli X-maze test. […] FIG. 6G-611 depict the results of the contrast mode of the visual stimuli X-maze test.
Old (18-month-old) mice were administered ETP69. Both a neurodegenerative model (AD+) and wild type siblings were tested. Mice were treated with i.p. injection of ETP69 [E; 10 mg/kg dissolved in dimethyl sulfoxide (DMSO)].

In the next assay the target is PRDM9 (Homo sapiens, UniProt Q9NQV7). Briefly: Methyltransferase inhibition panel: PRDM9. The format is biochemical. The procedure:
as §1

In a further assay the target is EZH2 Complex (Homo sapiens, UniProt Q15910). Briefly: Methyltransferase inhibition panel: EZH2 Complex. The class given is biochemical. To be noted: NT1721 20 μM; substrate Core Histone 0.05 mg/mL. The procedure:
as §1

Setting [2] is: read-out: Enzyme % Activity (relative to DMSO controls) Data 1.
Where [3] appears, read: read-out: Enzyme % Activity (relative to DMSO controls) Data 2.

Molecules are shown by their SMILES. Like-named read-outs stand apart in the source and are kept apart here.

Chain of PRDM9 (Q9NQV7 whole entry): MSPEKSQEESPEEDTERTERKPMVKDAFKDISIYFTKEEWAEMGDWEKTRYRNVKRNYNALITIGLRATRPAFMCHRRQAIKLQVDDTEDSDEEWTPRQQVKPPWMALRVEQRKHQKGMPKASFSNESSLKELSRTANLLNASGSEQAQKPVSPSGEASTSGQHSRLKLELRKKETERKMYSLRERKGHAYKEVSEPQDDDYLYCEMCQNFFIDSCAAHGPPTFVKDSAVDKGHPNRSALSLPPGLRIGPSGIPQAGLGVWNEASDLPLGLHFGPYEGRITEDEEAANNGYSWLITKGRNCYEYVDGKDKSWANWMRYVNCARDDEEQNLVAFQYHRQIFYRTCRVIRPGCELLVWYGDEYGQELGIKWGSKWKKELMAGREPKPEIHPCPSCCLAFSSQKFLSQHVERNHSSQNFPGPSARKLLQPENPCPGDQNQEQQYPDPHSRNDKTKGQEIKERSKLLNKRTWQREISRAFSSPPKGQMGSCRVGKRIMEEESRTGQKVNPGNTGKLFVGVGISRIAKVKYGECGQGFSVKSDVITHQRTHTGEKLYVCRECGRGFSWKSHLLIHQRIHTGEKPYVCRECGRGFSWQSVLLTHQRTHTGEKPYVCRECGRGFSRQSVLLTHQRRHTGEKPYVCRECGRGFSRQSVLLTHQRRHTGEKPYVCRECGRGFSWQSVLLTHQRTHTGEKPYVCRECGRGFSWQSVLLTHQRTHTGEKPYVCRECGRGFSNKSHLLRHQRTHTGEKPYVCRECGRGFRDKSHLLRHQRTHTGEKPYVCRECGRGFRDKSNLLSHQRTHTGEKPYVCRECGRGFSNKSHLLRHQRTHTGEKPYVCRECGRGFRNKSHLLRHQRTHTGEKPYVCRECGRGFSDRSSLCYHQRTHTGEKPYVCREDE
Chain of MLL3 Complex (Q15291 whole entry): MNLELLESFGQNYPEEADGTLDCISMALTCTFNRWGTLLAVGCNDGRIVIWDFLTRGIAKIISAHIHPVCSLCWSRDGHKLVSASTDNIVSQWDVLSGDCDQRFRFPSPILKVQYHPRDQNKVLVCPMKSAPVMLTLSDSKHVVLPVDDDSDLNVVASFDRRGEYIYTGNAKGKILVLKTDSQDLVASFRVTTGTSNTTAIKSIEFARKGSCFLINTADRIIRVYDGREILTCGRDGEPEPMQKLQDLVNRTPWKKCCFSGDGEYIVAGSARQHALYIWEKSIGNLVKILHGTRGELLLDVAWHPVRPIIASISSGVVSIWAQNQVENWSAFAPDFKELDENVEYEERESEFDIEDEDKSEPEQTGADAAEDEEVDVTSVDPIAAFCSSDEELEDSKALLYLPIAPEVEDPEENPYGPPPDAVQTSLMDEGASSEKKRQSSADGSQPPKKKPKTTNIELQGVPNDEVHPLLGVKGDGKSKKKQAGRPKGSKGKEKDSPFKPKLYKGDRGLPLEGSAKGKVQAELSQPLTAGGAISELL
Chain of MLL3 Complex (Q8NEZ4 4689-4911): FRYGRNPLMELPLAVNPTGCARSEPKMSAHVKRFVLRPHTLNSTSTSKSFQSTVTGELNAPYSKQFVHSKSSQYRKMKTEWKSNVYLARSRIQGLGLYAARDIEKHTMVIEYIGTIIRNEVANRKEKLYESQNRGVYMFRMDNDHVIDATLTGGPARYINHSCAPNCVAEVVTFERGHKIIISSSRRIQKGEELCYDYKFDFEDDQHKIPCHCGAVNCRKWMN
Chain of MLL3 Complex (Q9UBL3 96-628, further chain): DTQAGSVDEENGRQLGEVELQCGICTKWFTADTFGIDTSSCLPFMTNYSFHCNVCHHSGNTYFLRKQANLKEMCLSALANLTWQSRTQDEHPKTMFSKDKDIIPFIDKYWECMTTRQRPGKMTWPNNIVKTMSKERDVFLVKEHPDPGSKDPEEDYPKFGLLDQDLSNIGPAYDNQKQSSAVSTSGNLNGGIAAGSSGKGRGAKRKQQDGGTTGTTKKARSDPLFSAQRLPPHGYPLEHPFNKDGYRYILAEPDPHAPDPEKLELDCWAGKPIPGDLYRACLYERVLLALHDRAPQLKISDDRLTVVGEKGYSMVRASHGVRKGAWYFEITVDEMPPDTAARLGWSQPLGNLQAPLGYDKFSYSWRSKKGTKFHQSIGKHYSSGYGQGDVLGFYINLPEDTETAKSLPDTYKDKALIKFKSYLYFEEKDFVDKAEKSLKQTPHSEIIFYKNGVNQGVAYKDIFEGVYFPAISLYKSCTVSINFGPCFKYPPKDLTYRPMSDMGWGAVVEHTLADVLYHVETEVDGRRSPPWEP
Chain of MLL3 Complex (Q9C005 whole entry, further chain): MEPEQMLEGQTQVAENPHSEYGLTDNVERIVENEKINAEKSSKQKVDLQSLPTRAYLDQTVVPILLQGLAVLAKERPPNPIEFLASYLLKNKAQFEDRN
Chain of PRMT5 (C449S)/MEP50 (O14744 whole entry C449S): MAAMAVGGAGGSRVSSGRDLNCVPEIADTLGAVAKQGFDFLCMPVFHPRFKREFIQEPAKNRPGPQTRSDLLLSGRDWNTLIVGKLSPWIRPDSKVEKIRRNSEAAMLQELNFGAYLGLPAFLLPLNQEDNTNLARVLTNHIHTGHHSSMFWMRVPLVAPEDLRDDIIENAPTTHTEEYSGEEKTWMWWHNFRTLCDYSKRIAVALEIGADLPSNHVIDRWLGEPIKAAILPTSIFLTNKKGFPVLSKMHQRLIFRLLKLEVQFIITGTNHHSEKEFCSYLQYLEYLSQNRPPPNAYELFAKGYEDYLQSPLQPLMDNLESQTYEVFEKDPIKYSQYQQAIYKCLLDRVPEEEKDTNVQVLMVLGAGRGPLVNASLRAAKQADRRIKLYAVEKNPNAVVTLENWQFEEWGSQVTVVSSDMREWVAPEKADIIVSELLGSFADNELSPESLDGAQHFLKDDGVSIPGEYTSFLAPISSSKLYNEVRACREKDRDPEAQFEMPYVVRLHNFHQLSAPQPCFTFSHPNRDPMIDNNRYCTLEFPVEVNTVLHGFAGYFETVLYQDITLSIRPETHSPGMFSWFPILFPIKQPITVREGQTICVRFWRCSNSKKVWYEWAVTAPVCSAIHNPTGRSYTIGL
Chain of PRMT5 (C449S)/MEP50 (Q9BQA1 whole entry partner): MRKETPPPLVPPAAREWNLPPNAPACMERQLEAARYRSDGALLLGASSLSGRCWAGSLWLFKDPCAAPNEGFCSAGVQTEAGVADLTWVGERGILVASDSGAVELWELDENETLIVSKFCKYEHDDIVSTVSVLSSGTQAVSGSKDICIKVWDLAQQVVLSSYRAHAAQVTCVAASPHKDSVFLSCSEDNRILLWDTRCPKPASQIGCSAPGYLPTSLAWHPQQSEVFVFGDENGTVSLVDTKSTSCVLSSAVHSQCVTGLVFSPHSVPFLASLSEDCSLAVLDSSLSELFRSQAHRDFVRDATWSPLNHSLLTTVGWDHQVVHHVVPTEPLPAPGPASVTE

In the case of `CN1C(=O)[C@@]23C[C@](C)(C#N)[C@H](c4ccc5c(c4)OCO5)N2C(=O)[C@]1(C)SS3` (racemic) [ETP69, Rac-(3S,6S,7S,8aS)-6-(benzo[d][1,3]dioxol-5-yl)-2,3,7-trimethyl-1,4-dioxohexahydro-6H-3,8a-epidithiopyrrolo[1,2-a]pyrazine-7-carbonitrile], the remaining activity at 20 µM on NSD2 (E1099K) (setting [2]) came to 32.3%; at NSD2 (E1099K) (setting [3]), 32.7%; at MLL3 Complex (setting [2]), 36.6%; at MLL3 Complex (setting [3]), 32.6%; at PRMT5 (C449S)/MEP50 (setting [2]) it was 121%; at PRMT5 (C449S)/MEP50 (setting [3]), 123%. The values for the remaining activity at 20 µM at PRDM9 (setting [2]) and at PRDM9 (setting [3]) were 46.2% and 47.1%, respectively. In addition, the “inhibition relative to DMSO controls” value against NSD2 (E1099K) (summary of Table 1), on MLL3 Complex (summary of Table 1) and against PRDM9 (summary of Table 1) was “at least 7500” in each case. In addition, the “percent alternation and bidirectional movement” value in assay [1] (color mode, AD+ mice) is “significant increase”. In assay [1] (contrast mode, AD+ mice), the percent alternation entry was “significant increase”. The “colour X-maze spontaneous alternations” value in assay [1] (old WT mice, single dose 10 mg/kg i.p., p=0.0027) is given as “increased”. In addition, the “Enzyme % Activity (relative to DMSO controls) Data 1” value on EZH2 Complex was 98.37%. Further, on EZH2 Complex, the “Enzyme % Activity (relative to DMSO controls) Data 2” value was found to be 97.85%.
